Measurements published in patent publication US11725015B2, “Macrocyclic compound and uses thereof” (President and Fellows of Harvard College, priority 2017, dated 2023).

Key:
[1] = system: human breast cancer cell line MDA-MB231; assay: MDA-MB231 growth inhibition assay; format: cell-based; conditions: 3 days incubation, CellTiter-Glo
Experimental: In this assay, the growth inhibitory activity of test compounds in a human breast cancer cell line MDA-MB231 was measured. MDA-MB231 cells were maintained in Dulbecco's Modified Eagle's medium (Wako Pure Chemical Industries, Ltd., 044-29765) medium containing 10% fetal bovine serum (FBS: Nichirei, 12D168), and penicillin and streptomycin in a 5% CO2 incubator (37° C.). To each well of a 96 well plate (Becton, Dickinson and Company, 353219), 75 μL of MDA-MB231 cell suspension adjusted to a concentration of 4×10^4 cells/mL with the culture medium was added, and the cells were incubated overnight in a 5% CO2 incubator (37° C.). On the next day, 25 μL of Compound (1) or Halichondrin B in three-fold dilution series suspended in the culture medium was added to each well, and the resultant was incubated for 3 days in a 5% CO2 incubator (37° C.). Then, cell viability was determined by CellTiter-Glo® Luminescent Cell Viability Assay (Promega) with EnVision 2103 Multilabel Reader (Perkin-Elmer, Wellesley, Mass.). Value of the wells containing cells without adding the test compounds was defined as 100% and the value of the wells containing no cells was defined as 0%. The concentration of the test compound necessary for inhibiting the cell growth by 50% (i.e., an IC50 value) was calculated, and shown in Table 2.

[2] = system: OSC-19 subcutaneous xenograft; assay: Antitumor activity against OSC-19 subcutaneous xenograft model in mice as monotherapy; format: in vivo; conditions: Q7D×2
Experimental: A human squamous cell carcinoma of the head and neck (SCCHN) cell line OSC-19, which had been cultured in an DMEM/Ham's F-12 (1:1) medium containing 10% FBS, and penicillin and streptomycin, was adjusted to a concentration of 1×10^8 cells/ml with PBS to prepare a cell suspension, and the suspension was mixed with Matrigel™ (BD Bioscience, #366237) in a ratio of 1:1 to prepare a cell suspension in a concentration of 5×10^7 cell/mL. The cell suspension was inoculated in a volume of 100 μL into a subcutaneous part of a right flank of nude mice, 5 weeks of ages (CAnN.Cg-Foxnlnu/CrlCrlj, female, Charles River Laboratories Japan, Inc.).
On the basis of the volumes of tumors obtained on the first day of administration, the mice were grouped such that averages of the tumor volumes were substantially equal among the groups. The experiment was conducted on groups each consisting of 6 mice. Test compound was dissolved in saline and intravenously administered at doses from 0.06 mg/kg to 0.18 mg/kg once a week for 2 weeks (Q7D×2 schedule).

Tenascin-C = assay: Effect on Tenascin-C in the FaDu subcutaneous model in mice; format: in vivo; conditions: Compound (1) 180 μg/kg + CTX 10 mg/kg on Day 1, five days after, compared with control tumors
Experimental: A human squamous cell carcinoma of the head and neck (SCCHN) cell line FaDu, which had been cultured in an RPMI-1640 medium containing 10% FBS, and penicillin-streptomycin (culture medium), was adjusted to a concentration of 5×10^7 cells/mL with culture medium to prepare a cell suspension. The cell suspension was inoculated in a volume of 100 μL into a subcutaneous part of a right flank of nude mice, 6 weeks of ages (CAnN.Cg-Foxnlnu/CrlCrlj, female, Charles River Laboratories Japan, Inc.). Ten days after cell inoculation, the mice were grouped such that averages of the tumor volumes were substantially equal among the groups. The experiment was conducted on groups each consisting of 5 mice. Compound (1) was dissolved in DMSO and a solution was stored in the freezer before use. […] Five days after the single administration, tumor samples were collected and fixed with IHC Zinc Fixative (BD Pharmingen) at 4° C. for 24 hr. Paraffin-embedded tissues were sectioned (3 μm), mounted on positively charged slides, and air-dried. Sections were deparaffinized, conditioned and the antigens were retrieved using microwave with 1 mM EDTA at pH 6.0 for Tenascin-C. For EDA-fibronectin, the antigens retrieval procedure was not necessary. […]

[3] = system: HT-1080 (human fibrosarcoma) xenograft; assay: Antitumor effects in HT-1080 soft tissue sarcoma xenograft model in mice as monotherapy; format: in vivo; conditions: 180 μg/kg intravenously on Day 1 and Day 8
Experimental: A human fibrosarcoma cell line HT-1080, which had been cultured in an E-MEM containing 10% FBS, NEAA and antibiotics was adjusted to a concentration of 3×10^7 cells/mL with medium to prepare a cell suspension. The cell suspension was inoculated in a volume of 100 μL into a subcutaneous part of a right flank of athymic mice (CAnN.Cg-Foxnlnu/CrlCrlj, female, 6 weeks old, Charles River Japan Inc.). Six days after cell inoculation (Day 1), the length and the width of a tumor in each mouse were measured by using an electronic digital caliper (Mitutoyo Corporation), so as to calculate the volume of the tumor in accordance with the following calculation formula: Tumor volume (mm^3)=Longest diameter (mm)×Shortest diameter (mm)×Shortest diameter (mm)/2 Relative tumor volume (RTV)=Tumor volume (day X)/Tumor volume (the first day)
On the basis of TV, the mice were randomly grouped (Day 1). Each group was consisted in six mice. Compound (1) was dissolved in DMSO and a solution was stored in the freezer before use. Compound (1) (180 μg/kg) was diluted with saline and intravenously injected on Day 1 and Day 8.

Structure (SMILES): C=C1C[C@@H]2CC[C@@]34C[C@H]5O[C@H]6[C@@H](O3)[C@H]3O[C@H](CC[C@@H]3O[C@H]6C5O4)CC(=O)O[C@@H]3[C@@H](C)[C@@H]4O[C@@H]5C[C@]6(C[C@@H]7O[C@]8(C[C@H](C)[C@@H]9O[C@H](CN)[C@H](O)C[C@@H]9O8)C[C@H](C)[C@@H]7O6)O[C@@H]5C[C@@H]4O[C@H]3C[C@H]3O[C@@H](CC[C@@H]1O2)C[C@@H](C)C3=C [Compound (1)]
- IC50 [1]: 0.109 nM
- Tumor Regression (%) ([2]; 0.06 mg/kg intravenously): 59%
- Tumor Regression (%) ([2]; 0.18 mg/kg intravenously): 90%
- expression level of Tenascin-C (Tenascin-C): reduced
- antitumor activity [3]: tumor regression
